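Results reflect a 48-hour exposure of cells in 96-well plates to compound at five concentrations. GI50 = concentration required for 50% inhibition of growth.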 Calls of active or inactive are those of the source. Rule as the data show it: active = GI50 up to about 1.1 µM and inactive = higher.

Test systems include A549; ACHN; HOP-62; Hs-578T; IGROV-1; K562; LOX IMVI; M14; MDA-MB-435; MDA-N; MOLT-4; NCI-H460; OVCAR-3; OVCAR-4; RPMI-8226; SK-MEL-28; SK-MEL-2; SNB-19; SW-620; U-251.
Assay in all cases: NCI-60 cell line screen, 48 h

With `O/N=C1\C=Cc2nn(-c3ccccc3)nc2\C1=N/O`, the GI50 in the assay on A549 was 3.05 µM (inactive); with ACHN, 2.3 µM (inactive); with HOP-62 it was 4.3 µM (inactive); in the assay with Hs-578T, 1.85 µM (inactive); with IGROV-1, 2.79 µM (inactive); in the assay with K562, 0.695 µM (active). For the same molecule, the GI50 is 2.81 µM (inactive) in the assay with LOX IMVI; 5.79 µM (inactive) in the assay with M14; 2.74 µM (inactive) with MDA-MB-435; 7.96 µM (inactive) in the assay with MDA-N; 2.55 µM (inactive) in the assay on MOLT-4; 3.07 µM (inactive) with NCI-H460. Further, the GI50 in the assay with OVCAR-3 is 4.67 µM (inactive); in the assay on OVCAR-4, 5.36 µM (inactive); in the assay with RPMI-8226 it was 3.71 µM (inactive); in the assay with SK-MEL-28, 6.21 µM (inactive); with SK-MEL-2, 30.3 µM (inactive); with SNB-19 it was 5.5 µM (inactive). For the same molecule, the GI50 with SW-620 was 5.41 µM (inactive); with U-251, 7.16 µM (inactive).

`CCOC(=O)Cn1nnc2cc(Nc3nc4ccccc4nc3C(=O)OCC)ccc21`: the GI50 in the assay with A549 is > 100 µM (inactive); in the assay on ACHN it was > 100 µM (inactive); with HOP-62, 24.4 µM (inactive); with Hs-578T, 36.5 µM (inactive); in the assay with IGROV-1 it was > 100 µM (inactive); with K562 it was > 100 µM (inactive). Moreover, the GI50 in the assay on LOX IMVI, with M14, with MDA-MB-435, with MDA-N, in the assay with MOLT-4 and with NCI-H460 was > 100 µM (inactive) each time. The GI50 is > 100 µM (inactive) with OVCAR-3; > 100 µM (inactive) in the assay on OVCAR-4; > 100 µM (inactive) with RPMI-8226; > 100 µM (inactive) in the assay with SK-MEL-28; 78.2 µM (inactive) in the assay on SK-MEL-2; 29 µM (inactive) in the assay with SNB-19. The figures for the GI50 in the assay with SW-620 and in the assay on U-251 were > 100 µM (inactive) and 36 µM (inactive), respectively.

For `COc1ccc2c(CCN)c(C(=O)O)[nH]c2c1`, the GI50 is > 100 µM (inactive) with A549; > 100 µM (inactive) with ACHN; > 100 µM (inactive) with HOP-62; > 100 µM (inactive) in the assay with Hs-578T; > 100 µM (inactive) in the assay on IGROV-1; > 24.5 µM (inactive) in the assay on K562. Further, the GI50 with LOX IMVI was > 100 µM (inactive); in the assay with M14, > 100 µM (inactive); in the assay with MDA-MB-435 it was > 100 µM (inactive); with MDA-N, > 100 µM (inactive); in the assay on MOLT-4, 1 µM (active); with NCI-H460, > 100 µM (inactive). The GI50 in the assay on OVCAR-3, with OVCAR-4, with RPMI-8226, with SK-MEL-28, in the assay on SK-MEL-2 and in the assay on SNB-19 was > 100 µM (inactive) throughout. Further, the GI50 in the assay with SW-620 and in the assay on U-251 was > 100 µM (inactive) throughout.

Take `Nc1ccc(C(=O)Nc2ccccc2N)cc1` [DINALINE]: the GI50 with A549 was 38.6 µM (inactive); in the assay on ACHN, 31.7 µM (inactive); in the assay with HOP-62, 18.7 µM (inactive); in the assay with Hs-578T, 22.3 µM (inactive); in the assay on IGROV-1, 31.1 µM (inactive); in the assay with K562, 14.1 µM (inactive). Moreover, the GI50 was 21 µM (inactive) with LOX IMVI; 65.2 µM (inactive) with M14; 20.4 µM (inactive) in the assay with MDA-MB-435; 32.1 µM (inactive) in the assay with MDA-N; 11.8 µM (inactive) in the assay with MOLT-4; 18.5 µM (inactive) in the assay with NCI-H460. In addition, the GI50 with OVCAR-3 was 29.1 µM (inactive); with OVCAR-4, 20.2 µM (inactive); in the assay on RPMI-8226, 5.68 µM (inactive); in the assay on SK-MEL-28, 24.5 µM (inactive); in the assay with SK-MEL-2, 23.3 µM (inactive); in the assay on SNB-19 it was > 100 µM (inactive). In addition, the GI50 in the assay on SW-620 was 19.2 µM (inactive); in the assay on U-251 it was 17.7 µM (inactive).

Take `CC(=O)[C@H]1CC[C@H]2[C@@H]3CCC4=CC(=O)CC[C@]4(C)[C@H]3CC[C@]12C` [PROGESTERONE]: the GI50 in the assay on A549 was 25.3 µM (inactive); with ACHN, 26 µM (inactive); with HOP-62 it was 20.6 µM (inactive); in the assay with Hs-578T, 3.3 µM (inactive); in the assay with IGROV-1, 24.4 µM (inactive); in the assay on K562, 10.6 µM (inactive). Besides, the GI50 with LOX IMVI was 17.5 µM (inactive); in the assay with M14 it was 17.5 µM (inactive); with MDA-MB-435 it was 19.8 µM (inactive); in the assay on MDA-N it was 16.7 µM (inactive); in the assay on MOLT-4 it was 12.1 µM (inactive); in the assay on NCI-H460 it was 18.6 µM (inactive). For the same molecule, the GI50 in the assay on OVCAR-3 is 17.3 µM (inactive); in the assay with OVCAR-4, 18.7 µM (inactive); in the assay with RPMI-8226, 3.24 µM (inactive); with SK-MEL-28 it was 18.4 µM (inactive); in the assay with SK-MEL-2, 20 µM (inactive); in the assay with SNB-19, 24.1 µM (inactive). The GI50 with SW-620 is 31 µM (inactive); with U-251, 17.3 µM (inactive).

Values taken from ChEMBL document CHEMBL1201862, “PubChem BioAssay data set” (2004).
